Literature values in patent EP1033131B1, “Composition in the form of a drink having a delayed alcohol aversion effect” (Semenov, Sergei Petrovich, priority 1997, dated 1999).

What was measured:
Ratten = conditions: in vivo
[1] = in vivo
[2] = for Anregungseffekt der Alkoholwirkung / alkoholische Anregung: result in words
Cholinesterase = conditions: factor of reduction

Compound	Verlaufsschwere des Alkoholentzugssyndroms (Ratten)	Dauer des narkotischen Effekts des Alkohols [1]	Anregungseffekt der Alkoholwirkung / alkoholische Anregung [2]	other results
2,6-Diethylester der Ascorbinsäure	vermindert	vermindert	–	Stärke der alkoholischen Anregung, vermindert mit dem Quotienten ([2]; factor of reduction): 4; Eintreten der Anregungsphase ([2]; in vivo): verlangsamt; Dauer der alkoholischen Anregung, vermindert um ([2]; percent reduction): 25%
3,6-Diethylester der Ascorbinsäure	–	vermindert	–	–
CCOC1=C(OCC)C(C(O)CO)OC1=O (centres unmarked) [2,3-Diethylester der Ascorbinsäure]	vermindert	–	beeinflusst	–
CCOC(=O)C(O)=C(O)C(O)C(O)CO (centres unmarked) [1-Ethylester der Ascorbinsäure]	–	–	vermindern	Aktivität der Cholinesterase, vermindert mit dem Quotienten (Cholinesterase): > 2; Zeitraum der Anregung, verkürzt mit dem Quotienten ([2]; factor of shortening): 2
